# Experiments:
# Format in all cases: biochemical
# Sdt1 [1] = target: T1, Sdt1 (Saccharomyces cerevisiae, UniProt P53078); assay: malachite green phosphate release; conditions: 100 μM substrate, 5 mM MgCl2, pH 7.5, 37 °C, 30 min
# T1 construct: recombinant, C-terminal His tag, commercial (Echelon Biosciences)
# Sdt1 [2] = target: T1, Sdt1; assay: malachite green phosphate release; conditions: activator; 100 μM NMN, 5 mM MgCl2, pH 7.5, 37 °C, 30 min; mM NAM
# Pho8 [3] = target: T2, Pho8 (Saccharomyces cerevisiae, UniProt P11491); assay: pNPP hydrolysis, A400, whole cell extract of pho13Δ; conditions: pNPP substrate, Mg2+, Zn2+, pH 8.8, 37 °C, 15 min; weak inhibitor
# T2 construct: native enzyme in whole cell extract of pho13Δ strain (Pho8 the remaining alkaline phosphatase)
# T2 sequence (P11491 1-534): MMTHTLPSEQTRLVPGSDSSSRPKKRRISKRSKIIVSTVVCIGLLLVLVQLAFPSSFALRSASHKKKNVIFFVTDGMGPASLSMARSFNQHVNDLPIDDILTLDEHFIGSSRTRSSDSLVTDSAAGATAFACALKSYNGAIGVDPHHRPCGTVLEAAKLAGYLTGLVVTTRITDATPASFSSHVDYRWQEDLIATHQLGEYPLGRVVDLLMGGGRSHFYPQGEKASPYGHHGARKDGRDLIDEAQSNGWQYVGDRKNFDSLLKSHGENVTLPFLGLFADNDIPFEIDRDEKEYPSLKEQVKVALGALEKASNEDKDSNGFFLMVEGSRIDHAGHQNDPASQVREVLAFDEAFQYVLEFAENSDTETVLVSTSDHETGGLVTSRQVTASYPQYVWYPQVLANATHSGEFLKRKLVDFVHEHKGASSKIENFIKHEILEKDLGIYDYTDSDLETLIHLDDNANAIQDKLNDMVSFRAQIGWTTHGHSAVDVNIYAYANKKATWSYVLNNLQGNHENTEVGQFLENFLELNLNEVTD
# Sdt1 [4] = target: T1, Sdt1; assay: malachite green phosphate release; conditions: 100 μM CMP (also inhibited with NMN), 5 mM MgCl2, pH 7.5, 37 °C, 30 min; mM INAM
# Phm8 = target: T3, Phm8 (Saccharomyces cerevisiae, UniProt P40025); assay: malachite green phosphate release; conditions: 100 μM CMP, 5 mM MgCl2, pH 7.5, 37 °C, 30 min; mM INAM
# T3 construct: pET-16b (NdeI), E. coli BL21(DE3), C-terminal 10xHis as printed, Ni-NTA purified
# T3 sequence (P40025 1-321): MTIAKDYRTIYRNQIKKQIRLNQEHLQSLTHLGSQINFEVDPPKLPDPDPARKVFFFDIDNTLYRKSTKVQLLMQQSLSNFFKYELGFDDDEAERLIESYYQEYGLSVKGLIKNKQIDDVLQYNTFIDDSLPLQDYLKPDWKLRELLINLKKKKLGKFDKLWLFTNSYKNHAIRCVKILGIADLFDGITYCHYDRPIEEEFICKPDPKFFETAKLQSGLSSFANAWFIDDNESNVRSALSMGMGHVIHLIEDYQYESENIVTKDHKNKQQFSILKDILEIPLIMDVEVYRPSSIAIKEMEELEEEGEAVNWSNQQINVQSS
# Pho13 [5] = target: T4, Pho13 (Saccharomyces cerevisiae, UniProt P19881); assay: pNPP hydrolysis, A400, whole cell extract of pho8Δ; conditions: pNPP substrate, Mg2+, Zn2+, pH 8.8, 37 °C, 15 min; weak inhibitor
# T4 construct: native enzyme in whole cell extract of pho8Δ strain (Pho13 the remaining alkaline phosphatase)
# T4 sequence (P19881 1-312): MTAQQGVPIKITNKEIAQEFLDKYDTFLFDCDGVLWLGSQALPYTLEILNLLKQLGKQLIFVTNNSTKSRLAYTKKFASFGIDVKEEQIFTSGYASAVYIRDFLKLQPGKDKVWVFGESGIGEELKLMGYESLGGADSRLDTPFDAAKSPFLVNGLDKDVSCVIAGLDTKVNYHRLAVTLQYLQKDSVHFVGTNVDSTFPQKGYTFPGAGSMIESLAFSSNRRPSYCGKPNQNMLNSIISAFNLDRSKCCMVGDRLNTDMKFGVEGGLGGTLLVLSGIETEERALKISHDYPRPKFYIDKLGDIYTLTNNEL
# Pho8 [6] = target: T2, Pho8; assay: pNPP hydrolysis, A400, whole cell extract of pho13Δ; conditions: Mg2+, Zn2+, pH 8.8, 37 °C, 15 min
# Pho13 [7] = target: T4, Pho13; assay: pNPP hydrolysis, A400, whole cell extract of pho8Δ; conditions: Mg2+, Zn2+, pH 8.8, 37 °C, 15 min
# T1 sequence (P53078 whole entry): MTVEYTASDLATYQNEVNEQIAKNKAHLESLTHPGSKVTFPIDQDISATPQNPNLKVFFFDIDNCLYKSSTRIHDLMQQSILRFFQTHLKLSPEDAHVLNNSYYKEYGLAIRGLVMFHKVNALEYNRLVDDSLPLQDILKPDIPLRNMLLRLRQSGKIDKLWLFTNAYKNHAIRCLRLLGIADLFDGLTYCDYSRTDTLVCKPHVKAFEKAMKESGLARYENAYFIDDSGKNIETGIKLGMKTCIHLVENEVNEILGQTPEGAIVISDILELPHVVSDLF
smiles,measurement,setting,value
NC(=O)c1ccc[n+]([C@@H]2O[C@H](COP(=O)(O)O)[C@@H](O)[C@H]2O)c1 [nicotinamide mononucleotide],malachite green phosphate release,Sdt1 [1],INAM inhibition of recombinant Sdt1 nucleotidase activity on NMN in vitro
NC(=O)c1cccnc1 [nicotinamide],stimulation of nucleotidase activity,Sdt1 [2],NAM caused significant dose-dependent stimulation of Sdt1 nucleotidase activity with NMN as substrate
NC(=O)c1ccncc1 [isonicotinamide],inhibition of alkaline phosphatase activity,Pho8 [3],suggesting that Pho8 and Pho13 are both weak inhibitory targets
same,inhibition of nucleotidase activity,Sdt1 [4],Sdt1 and Phm8 activity on CMP and NMN was significantly inhibited by INAM
same,inhibition of nucleotidase activity,Phm8,INAM inhibition of recombinant Sdt1 and Phm8 nucleotidase activity on CMP in vitro
same,inhibition of alkaline phosphatase activity,Pho13 [5],suggesting that Pho8 and Pho13 are both weak inhibitory targets
O=[N+]([O-])c1ccc(OP(=O)(O)O)cc1 [p-nitrophenyl phosphate],"pNPP hydrolysis, A400, whole cell extract of pho13Δ",Pho8 [6],both utilize pNPP as a substrate in vitro
same,"pNPP hydrolysis, A400, whole cell extract of pho8Δ",Pho13 [7],both utilize pNPP as a substrate in vitro

# From publication PMC12876586, “Chronological lifespan extension and nucleotide salvage inhibition in yeast by isonicotinamide supplementation” (The Journal of Biological Chemistry, 2026)
